Assay results: paper PMC11879040, “Advancing systemic toxicity risk assessment: Evaluation of a NAM-based toolbox approach” (Toxicological Sciences, 2024)
Like-named read-outs stand apart in the source and are kept apart here.

Columns and labels:
[1] = PBK level L2; taken or scaled from references (median where several); ref [6],[7],[10],[19]; cited from earlier work
[2] = skin penetration (PBK input); conditions: PBK level L2, [28] (ibuprofen)
[3] = PBK level L2; single value or median; ref [2],[4],[6],[7],[8],[10],[11],[15],[18],[27],[34]; cited from earlier work
[4] = human
[5] = test system: Thyroid hormone receptor alpha, THRA (h); test: IPP THRA coactivator recruitment (agonist); type: biochemical, human; conditions: 100 uM; agonist; T3; * denotes assay interference (2-Amino-6-chloro-4-nitrophenol, HC Red 3)
[6] = test system: HepG2 cells; test: Cell stress panel (CSP), 24 h, 8 concentrations, BIFROST global PoD; type: cell-based; conditions: HepG2; cell stress panel PoD
Procedure: Compounds were tested using the previously developed cell stress panel ([Hatherell et al. 2020]) and the expanded biomarker panel outlined in Middleton et al. HepG2 cells were treated with all compounds for 24 h across 8 concentrations prior to biomarker analysis. The same plate layout and number of replicates (3 biological and 2 technical) were used as previously for each assay within the panel.

[7] = biological target: T1, Adenosine receptor A2a, ADORA2A (h) (Homo sapiens, UniProt P29274); test: IPP ADORA2A binding (agonist radioligand); conditions: IPP screening at 100 uM; control NECA
T1 construct: purchased Eurofins Cerep (SafetyScreen44-based IPP panel)
T1 sequence (P29274 whole entry): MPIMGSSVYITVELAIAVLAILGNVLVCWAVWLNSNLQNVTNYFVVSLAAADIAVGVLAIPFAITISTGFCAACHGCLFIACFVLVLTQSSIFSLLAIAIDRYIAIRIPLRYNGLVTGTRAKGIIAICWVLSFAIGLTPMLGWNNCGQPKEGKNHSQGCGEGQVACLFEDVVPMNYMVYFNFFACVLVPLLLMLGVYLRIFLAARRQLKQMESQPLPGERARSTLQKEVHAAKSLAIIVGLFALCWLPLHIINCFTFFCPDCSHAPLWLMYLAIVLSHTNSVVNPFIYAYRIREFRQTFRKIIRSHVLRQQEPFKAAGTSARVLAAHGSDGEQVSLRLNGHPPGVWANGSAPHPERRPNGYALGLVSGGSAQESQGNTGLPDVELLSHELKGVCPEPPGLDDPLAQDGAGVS

[8] = test system: HepaRG cells; test: High-throughput transcriptomics (HTTr, TempO-Seq), HepaRG, 24 h; type: cell-based, human; conditions: HepaRG; for pod_httr_bifrost PoD: HTTr BIFROST PoD; for podl_path_minbmd PoD: HTTr minimum pathway BMD(L)
Procedure: (§1) HepG2, HepaRG, and MCF7 cells were treated with each compound for 24 h across a dose range of 7 concentrations and lysed using TempO-Seq lysis buffer (BioSpyder Technologies, proprietary kit, see [Middleton et al. 2022] for method details). Sequencing was performed using TempO-Seq (BioClavis) version 2 of the human whole transcriptome panel and analyzed as described previously in Middleton et al.

[9] = test system: Glutamate receptor ionotropic NMDA 1 non-selective, GRIN1 (r)
[10] = test system: Gamma-aminobutyric acid receptor subunit alpha-1 BZD site, GABRA1A (r); type: binding, rat
[11] = test system: Potassium Voltage-Gated Channel Kv non-selective, KCNQ1 (r); test: IPP KCNQ1 binding (antagonist radioligand); set-up: species or system rat; conditions: IPP screening at 100 uM; control α-dendrotoxin
[12] = test system: MCF7 cells; test: High-throughput transcriptomics (HTTr, TempO-Seq), MCF7, 24 h; type: cell-based, human; conditions: MCF-7; for pod_httr_bifrost PoD: HTTr BIFROST PoD; for podl_path_minbmd PoD: HTTr minimum pathway BMD(L)
Procedure: as §1

[13] = biological target: T2, Estrogen receptor, ER1 (h) (Homo sapiens, UniProt P03372); test: IPP ER1 coactivator recruitment (agonist); type: biochemical; conditions: 100 uM, estriol, * denotes assay interference (2-Amino-6-chloro-4-nitrophenol, HC Red 3)
T2 construct: purchased Eurofins Cerep (SafetyScreen44-based IPP panel)
T2 sequence (P03372 1-595): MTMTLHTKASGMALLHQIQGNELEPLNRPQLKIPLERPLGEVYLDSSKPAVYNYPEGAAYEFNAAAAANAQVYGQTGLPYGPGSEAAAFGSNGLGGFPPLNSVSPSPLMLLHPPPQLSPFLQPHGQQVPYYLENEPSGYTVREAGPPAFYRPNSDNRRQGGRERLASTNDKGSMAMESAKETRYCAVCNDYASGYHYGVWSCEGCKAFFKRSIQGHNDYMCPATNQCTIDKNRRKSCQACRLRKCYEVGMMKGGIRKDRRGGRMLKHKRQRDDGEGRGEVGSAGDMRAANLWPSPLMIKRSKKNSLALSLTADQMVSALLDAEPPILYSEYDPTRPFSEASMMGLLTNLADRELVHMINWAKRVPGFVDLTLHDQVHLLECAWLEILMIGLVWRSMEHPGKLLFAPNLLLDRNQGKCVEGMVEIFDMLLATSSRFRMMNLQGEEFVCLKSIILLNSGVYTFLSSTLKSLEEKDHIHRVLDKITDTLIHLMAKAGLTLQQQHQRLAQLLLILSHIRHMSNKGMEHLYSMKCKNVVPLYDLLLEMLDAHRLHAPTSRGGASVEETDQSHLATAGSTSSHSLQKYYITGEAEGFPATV

[14] = test system: Tubulin (r); test: IPP Tubulin binding; set-up: species or system rat; conditions: 100 uM; ligand/control Colchicine
[15] = test system: rat; conditions: cited from earlier work; for PoD (NOAEL): rat, ref ToxRefDB/Paul-Friedman et al. (2020)/regulatory opinions
[16] = test system: Sodium channel protein type 5 subunit alpha (site 2), SCN5A (r); type: binding, rat; conditions: IPP screening at 100 uM; control veratridine
[17] = biological target: T2, Estrogen receptor, ER1 (h); test: IPP ER1 coactivator recruitment (antagonist); type: biochemical; conditions: 100 uM, estriol, * denotes assay interference (2-Amino-6-chloro-4-nitrophenol, HC Red 3)
[18] = test system: HepG2 cells; test: High-throughput transcriptomics (HTTr, TempO-Seq), HepG2, 24 h; type: cell-based, human; conditions: HepG2; for pod_httr_bifrost PoD: HTTr BIFROST PoD; for podl_path_minbmd PoD: HTTr minimum pathway BMD(L)
Procedure: as §1

[19] = biological target: Potassium voltage-gated channel subfamily H member 2 hERG, KCNH2 (h) (Homo sapiens, UniProt Q12809); conditions: human, 100 µM
Potassium voltage-gated channel subfamily H member 2 hERG, KCNH2 (h), sequence (Q12809 whole entry): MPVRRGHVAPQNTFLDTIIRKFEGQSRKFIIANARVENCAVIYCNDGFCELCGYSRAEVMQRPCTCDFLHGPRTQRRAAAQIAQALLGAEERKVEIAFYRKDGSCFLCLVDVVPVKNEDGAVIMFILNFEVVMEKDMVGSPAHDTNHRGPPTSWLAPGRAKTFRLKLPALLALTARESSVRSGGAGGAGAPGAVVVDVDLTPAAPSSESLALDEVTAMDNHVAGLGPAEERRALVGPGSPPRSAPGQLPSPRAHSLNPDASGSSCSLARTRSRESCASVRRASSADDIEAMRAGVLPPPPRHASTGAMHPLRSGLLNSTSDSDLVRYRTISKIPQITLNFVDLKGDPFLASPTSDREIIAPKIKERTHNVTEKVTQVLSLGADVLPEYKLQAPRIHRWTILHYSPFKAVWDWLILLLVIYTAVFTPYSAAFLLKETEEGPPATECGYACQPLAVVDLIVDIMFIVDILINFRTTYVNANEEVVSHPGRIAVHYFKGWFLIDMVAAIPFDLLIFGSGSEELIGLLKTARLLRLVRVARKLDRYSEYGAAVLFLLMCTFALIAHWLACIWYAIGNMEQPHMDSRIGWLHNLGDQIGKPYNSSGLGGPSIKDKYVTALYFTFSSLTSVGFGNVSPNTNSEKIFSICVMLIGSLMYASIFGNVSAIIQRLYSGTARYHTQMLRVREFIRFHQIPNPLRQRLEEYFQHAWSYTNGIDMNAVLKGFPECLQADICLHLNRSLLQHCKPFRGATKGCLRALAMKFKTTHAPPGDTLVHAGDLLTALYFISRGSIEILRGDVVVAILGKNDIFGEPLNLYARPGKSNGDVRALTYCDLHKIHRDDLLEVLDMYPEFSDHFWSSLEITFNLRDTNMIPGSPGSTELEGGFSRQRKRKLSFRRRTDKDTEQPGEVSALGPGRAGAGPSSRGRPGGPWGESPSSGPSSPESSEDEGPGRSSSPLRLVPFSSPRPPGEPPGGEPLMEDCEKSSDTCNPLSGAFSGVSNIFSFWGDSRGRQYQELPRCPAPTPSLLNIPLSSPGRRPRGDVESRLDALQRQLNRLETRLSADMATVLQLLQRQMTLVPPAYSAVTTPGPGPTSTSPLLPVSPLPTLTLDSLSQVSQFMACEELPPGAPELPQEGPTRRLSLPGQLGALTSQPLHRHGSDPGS

[20] = cited from earlier work
[21] = test system: 63 targets with known safety liabilities; test: In vitro pharmacological profiling (IPP) panel, screening at 10 or 100 µM and dose response, minimum IC50/AC50; type: biochemical; conditions: lowest AC50 across IPP panel (systemic targets); cell_type -; read-out: ipp_lowest_ac50_systemic PoD
[22] = optimised based on [21] (glutaraldehyde), [23] (HCRed3)
[23] = IPP screening at 100 uM, control CGS 19755
[24] = IPP screening at 100 uM, control diazepam
[25] = IV bolus 391 mg, healthy 2 male 3 female, calibration, ref Pentikäinen et al. 1979
[26] = IV infusion 195 mg, 4 healthy male, validation, ref Tucker et al. 1981
[27] = Oral 391 mg (IR: Tablet), fasted, healthy 2 male 3 female, calibration, ref Pentikäinen et al. 1979
[28] = Oral 391 mg (IR: Tablet), fed, healthy 12 male 4 female, validation, ref Tucker et al. 1981
[29] = neurological effects, ref SCCS/1582/16

SMILES | risk [4] | IPP screening %, Coactivator recruitment [5] [%] | pod_cell_stress PoD [6] [µM] | Specific binding [7] [%] | pod_httr_bifrost PoD [8] [µM] | podl_path_minbmd PoD [8] [µM] | Specific binding [9, 23] [%] | Specific binding [10, 24] [%] | Specific binding [11] [%] | pod_httr_bifrost PoD [12] [µM] | podl_path_minbmd PoD [12] [µM] | IPP screening %, Coactivator recruitment [13] [%] | IPP screening %, Specific binding [14] [%] | Specific binding [16] [%] | IPP screening %, Coactivator recruitment [17] [%] | pod_httr_bifrost PoD [18] [µM] | podl_path_minbmd PoD [18] [µM] | IPP screening %, Specific binding [19] [%] | PoD (NOAEL) ([15]; 90 day oral rat study) [mg/kg bw/day] | AC50 [21] [nM] | also measured
Nc1ccc(NCCO)c([N+](=O)[O-])c1 [HCRed3] | – | – | – | – | – | – | – | – | – | – | – | – | – | – | – | – | – | – | – | – | Intrinsic Liver Clearance [1]: 248.1 L/h; Diffusivity Dermis [2, 22]: 1.00E-08 cm^2/s; Diffusivity Stratum Corneum [2, 22]: 1.00E-08 cm^2/s; Diffusivity Viable Epidermis [2, 22]: 1.00E-10 cm^2/s; Partition Coefficient Stratum Corneum/Water ([2]; optimised based on [21] (glutaraldehyde), [23] (HCRed3), no reference printed (DEET)): 1.50; Diffusivity Vehicle ([2]; optimised based on [23] (HCRed3)): 1.00E-05 cm^2/s; Fup [3]: 62.28%
CCCCCCC(O)CO (stereo not drawn) [1,2-Octanediol, Octane-1,2-diol] | 0 | 2.0 | 272.296 | 1.4 | 103.989 | 259.271 | 3.1 | 10.0 | -4.4 | 48.9281 | 968.894 | 0.0 | 3.0 | 26.3 | 0.0 | 108.846 | 1029.23 | 14.6 | – | – | PoD (NOAEL) ([15]; developmental): 150 mg/kg bw/day
CN(C)C(=N)N=C(N)N [Metformin, N,N-Dimethyltriimidodicarbonic diamide] | 1 | 4.0 | 133.042 | -1.4 | 80.527 | 386.965 | – | – | – | 45.2765 | 722.808 | – | 14.0 | – | – | 107.11 | 592.816 | – | – | – | Specific binding [9]: -9.9%; Reported AUC0-t [20, 25]: 23529 ng·h/mL; Reported cmax [20, 25]: 47.318 µg/mL; Reported tmax [20, 25]: 4.2 min; Reported AUC0-t [20, 26]: 8905.5 ng·h/mL; Reported cmax [20, 26]: 8.93 µg/mL; Reported tmax [20, 26]: 0 min; Reported AUC0-t [20, 27]: 10696 ng·h/mL; Reported cmax [20, 27]: 3.1615 µg/mL; Reported tmax [20, 27]: 43.11 min; Reported AUC0-t [20, 28]: 11234 ng·h/mL; Reported cmax [20, 28]: 2 µg/mL; Reported tmax [20, 28]: 104 min; Specific binding [10]: 0.6%
CCOc1cc(CCC(C)=O)ccc1O [Ethylzingerone, 4-(3-Ethoxy-4-hydroxyphenyl)butan-2-one] | 0 | 4.0 | 17.0917 | 4.5 | 29.321 | 291.446 | -16.9 | -2.5 | 0.7 | 11.821 | 119.724 | 2.0 | 16.0 | 8.8 | -14.0 | 11.971 | 445.376 | 0.2 | 100 | 1390 | local NOAEL ([15]; 90 day oral rat study, ref SCCS/1582/16): 300 mkd; BMD [15, 29]: 220 mkd; BMDL [15, 29]: 110 mkd
Cc1c(O)cccc1O [2-methyl-1,3-benzenediol, 2-Methylbenzene-1,3-diol] | 0 | 2.0 | 8.64 | 8.4 | 22.9719 | 117.879 | 1.8 | 6.5 | 27.5 | 1.165 | 52.4925 | 13.0 | -14.0 | 41.6 | -6.0 | 0.2182 | 169.35 | 3.3 | 100 | 900 | NOAEL ([15]; 90-day study, body weight changes to rats, ref [3,4]): 100 mg/kg bw/day; NOAEL for teratogenicity and maternal toxicity ([15]; ref [3,4]): 400 mg/kg bw/day
